Experimental data published in US11434239B2, “Aza-dihydro-acridone derivatives” (Artax Biopharma Inc., priority 2017, dated 2022).
Read-outs that look alike come from different tables or passages of the source.

Assays:
[1] = target: T1, CYP1A2 (Homo sapiens, UniProt P05177); assay: CYP inhibition, microsomes; format: in vitro ADME; conditions: metabolite acetaminophen
T1 construct: premixing appropriate volumes of buffer, microsomes and substrate; from tissue
T1 sequence (P05177 1-516): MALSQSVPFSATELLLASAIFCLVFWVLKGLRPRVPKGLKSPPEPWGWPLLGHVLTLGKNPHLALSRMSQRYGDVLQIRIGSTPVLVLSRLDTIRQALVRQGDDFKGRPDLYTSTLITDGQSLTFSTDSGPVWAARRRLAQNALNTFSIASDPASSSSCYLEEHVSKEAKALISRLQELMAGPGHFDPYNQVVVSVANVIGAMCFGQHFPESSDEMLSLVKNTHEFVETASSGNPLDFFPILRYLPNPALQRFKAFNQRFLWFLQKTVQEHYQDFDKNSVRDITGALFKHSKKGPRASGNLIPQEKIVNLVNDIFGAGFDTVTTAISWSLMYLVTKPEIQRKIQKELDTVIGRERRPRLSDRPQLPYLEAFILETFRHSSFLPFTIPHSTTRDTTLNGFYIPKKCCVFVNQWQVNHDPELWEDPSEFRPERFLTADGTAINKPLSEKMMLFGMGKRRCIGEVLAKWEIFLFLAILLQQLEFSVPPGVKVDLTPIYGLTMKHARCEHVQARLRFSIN
Description: (§1) For each isozyme, microsomes-buffer-substrate mixture (MBS mix) is prepared by premixing appropriate volumes of buffer, microsomes and substrate. MBS mixture (179 μL) is transferred to a 96-well reaction plate. An aliquot (1 μL) is spiked from corresponding wells of Test Item stock solution plate to reaction plate. The reaction plate is pre-incubated for 5 minutes at 37° C. Reaction is initiated by the addition of 20 μL of NADPH solution. Each experiment is performed in duplicate. Reaction plate is incubated for predetermined time at 37° C. and quenched using either 200 μL of acetonitrile (for CYP2C9, CYP2D6, CYP2C19 and CYP3A4) or 200 μL of a mixture of 70:30 1% formic acid:acetonitrile (for CYP1A2).

[2] = target: T2, CYP2C19 (Homo sapiens, UniProt P33261); assay: CYP inhibition, microsomes; format: in vitro ADME; conditions: metabolite 4′-hydroxy mephenytoin, class symbols
T2 construct: premixing appropriate volumes of buffer, microsomes and substrate; from tissue
Description: as §1

[3] = target: T3, CYP2C9 (Homo sapiens, UniProt P11712); assay: CYP inhibition, microsomes; format: in vitro ADME; conditions: metabolite 4-hydroxy diclofenac
T3 construct: premixing appropriate volumes of buffer, microsomes and substrate; from tissue
Description: as §1

[4] = target: T4, CYP2D6 (Homo sapiens, UniProt P10635); assay: CYP inhibition, microsomes; format: in vitro ADME; conditions: metabolite dextrorphan, class symbols
T4 construct: premixing appropriate volumes of buffer, microsomes and substrate; from tissue
Description: as §1

[5] = target: T5, CYP3A4 (Homo sapiens, UniProt P08684); assay: CYP inhibition, microsomes; format: in vitro ADME
T5 construct: premixing appropriate volumes of buffer, microsomes and substrate; from tissue
Description: as §1

[6] = Microsomal stability (intrinsic clearance study); format: in vitro ADME; conditions: 0.5 mg/mL protein
Description: Intrinsic clearance studies are performed individually with mouse, rat and human liver microsomes at 0.5 mg/mL protein concentration. Briefly, for protein concentration 0.5 mg/mL assay, liver microsomal protein (12.5 uL), NAPDH (50 uL) and phosphate buffer (435 uL) are co-incubated (pre-incubation) in a 96-well deep well plate in an orbital incubator (10 min, 37° C.). Reactions are initiated by the addition of 2.5 uL of test item working stock solution (100 uM). Aliquots (50 uL) are withdrawn from the reaction tube at 0, 5, 10, 20 and 30 minutes and the reaction is immediately terminated by transferring to a 96 deep well plate containing 50 uL of acetonitrile. Verapamil is used as a positive control in mouse, rat and human liver microsomes. To the quenched samples internal standard is added and vortex mixed followed by centrifugation at 4000 rpm for 10 minutes and an aliquot of supernatant is taken for LC-MS/MS analysis. Samples are analyzed by a suitable fit-for-purpose multiple reaction monitoring method developed on LC-MS/MS using and API 4000 mass spectrometer to estimate the area ratio (analyte peak area/internal standard peak area).

[7] = target: T6, hERG (Homo sapiens, UniProt Q12809); assay: hERG inhibition, IKr current, patch clamp in HEK cells stably transfected with the hERG clone; format: cell-based; conditions: for inhibition at 1 µM / inhibition at 3 µM / inhibition at 10 µM / inhibition at 30 µM: human, HEK cells stably transfected with hERG; for inhibition at 1 µM: pH 7.4, 1 μM; for inhibition at 3 µM: pH 7.4, 3 μM; for inhibition at 10 µM: pH 7.4, 10 μM; for inhibition at 30 µM: pH 7.4, 30 μM; for IC50: test concentrations 1, 3, 10 and 30 μM, read-out: hERG IC 50 (IKr current)
T6 construct: expressed in transfected cells
Description: HEK cells stably transfected with the hERG clone are maintained at 37±2° C. in a 5% CO2 incubator. The cells are initially revived and grown in DMEM/F12+GlutaMAX-I medium supplemented with 9% fetal bovine serum (FBS) and antibiotics (Penicillin 100 IU/mL Streptomycin 100 μg/mL) (complete medium). Furthermore, the cells are continuously maintained and passaged in complete media in addition to the appropriate concentration of selection antibiotic (Geneticin (G418) 200 μg/mL) (Selection media). The cells are sub cultured every 2-3 days and medium is changed with complete medium at least a day before the experiment.
The cells are harvested on the day of experiment, dislodged and suspended in sterile filtered external solution (NaCl 140 mM, KCl 4 mM, MgCl2 1 mM, CaCl2 2 mM, D-Glucose monohydrate 5 mM, Hepes/NaOH 10 mM, pH 7.4, Osmolarity:298+/−5 mOsmol).
The NPC®-1 chip of the Port-a-Patch® is filled with 5 μL of internal solution (KCl 50 mM, NaCl 10 mM, KFl 60 mM, EGTA 20 mM, Hepes/KOH 10 mM, pH 7.2, Osmolarity: 285+/−5 mOsmol) and it is screwed onto the chip holder. The Faraday cage is then fixed on the chip holder, such that the external electrode is placed near to the chip aperture. 5 μL of external solution is added to the center of the aperture so that the external electrode is also in contact with the solution.
The experiment is be initiated. […] The suction automatically attracts a cell to the aperture, resulting in an increase in the chip resistance. When the cell is captured and the set threshold for the resistance is reached, the software recognizes this increase in resistance and proceeds to the next step of the sealing procedure. 20 μL of seal enhancer solution (NaCl 80 mM, KCl 4 mM, MgCl2 10 mM, CaCl2 35 mM, Hepes (Na+salt)/HCl pH 7.4, Osmolarity: 298+/−5 mOsmol) is added 2-3 times. When the threshold resistance is reached, Patch Control automatically moves to the step of improving the seal. When the desirable resistance (Rpip) is reached, whole cell mode is attained and maintained.
Finally, hERG protocol is selected to run the experiment. The seal enhancer solution is replaced with 20 μL external solution after 2-4 rinses and then the test item is added (from lower to higher concentration) and checked for current inhibition. All the experiments are performed at ambient temperature (22-25° C.).
A schematic diagram of the Pulse protocol: Cells are stimulated every 10 seconds using the following protocol. The holding potential, sweep intervals and the depolarization/repolarization potentials are furnished in the table below.
Once the stable current is attained (at least 2-5 minutes) vehicle control is added and the current measured till the stable current is achieved. 3-5 consecutive data points from the last stable current phase are considered for further analysis. […] The system performs on-line analysis for several parameters which include functions that acquire data from traces and functions that perform calculations on the results of other functions.

[8] = column CYP3A4^a (footnote a not given), class symbols, read-out: CYP IC50 CYP3A4^a
[9] = column CYP3A4^b (footnote b not given), class symbols, read-out: CYP IC50 CYP3A4^b
[10] = human liver microsomes, read-out: Microsomal stability (T½ min) Human
[11] = mouse liver microsomes, read-out: Microsomal stability (T½ min) Mouse
[12] = rat liver microsomes, read-out: Microsomal stability (T½ min) Rat
[13] = mean of two trials, read-out: Percent Inhibition Mean (%) (IKr current)
[14] = read-out: Percent Inhibition Trial I (IKr current)
[15] = read-out: Percent Inhibition Trial II (IKr current)

T5 sequence (P08684 whole entry): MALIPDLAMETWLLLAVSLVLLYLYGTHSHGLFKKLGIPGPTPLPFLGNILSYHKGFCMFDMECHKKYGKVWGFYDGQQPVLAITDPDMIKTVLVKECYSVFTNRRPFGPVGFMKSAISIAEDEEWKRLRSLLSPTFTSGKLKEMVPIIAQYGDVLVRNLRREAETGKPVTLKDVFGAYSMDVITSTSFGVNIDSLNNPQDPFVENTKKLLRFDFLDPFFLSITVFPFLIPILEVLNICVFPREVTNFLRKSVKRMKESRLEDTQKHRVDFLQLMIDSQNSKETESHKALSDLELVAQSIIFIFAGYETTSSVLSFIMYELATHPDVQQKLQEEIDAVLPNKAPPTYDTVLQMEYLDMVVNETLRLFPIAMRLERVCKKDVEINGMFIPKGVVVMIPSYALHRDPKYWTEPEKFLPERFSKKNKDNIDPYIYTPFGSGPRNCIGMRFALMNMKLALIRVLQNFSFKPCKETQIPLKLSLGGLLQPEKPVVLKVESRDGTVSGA
T2 sequence (P33261 whole entry): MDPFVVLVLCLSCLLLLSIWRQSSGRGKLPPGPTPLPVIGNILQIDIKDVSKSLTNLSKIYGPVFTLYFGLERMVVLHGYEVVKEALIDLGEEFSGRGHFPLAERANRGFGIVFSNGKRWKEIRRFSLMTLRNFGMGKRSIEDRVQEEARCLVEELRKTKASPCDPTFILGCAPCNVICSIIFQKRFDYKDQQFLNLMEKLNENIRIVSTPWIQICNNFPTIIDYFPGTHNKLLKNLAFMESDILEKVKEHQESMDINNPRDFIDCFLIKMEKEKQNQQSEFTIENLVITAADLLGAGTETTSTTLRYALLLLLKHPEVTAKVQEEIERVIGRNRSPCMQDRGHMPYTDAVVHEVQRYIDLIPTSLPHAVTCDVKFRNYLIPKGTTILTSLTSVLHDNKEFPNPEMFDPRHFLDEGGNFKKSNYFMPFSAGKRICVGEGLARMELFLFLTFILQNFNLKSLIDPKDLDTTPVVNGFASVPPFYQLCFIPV
T4 sequence (P10635 whole entry): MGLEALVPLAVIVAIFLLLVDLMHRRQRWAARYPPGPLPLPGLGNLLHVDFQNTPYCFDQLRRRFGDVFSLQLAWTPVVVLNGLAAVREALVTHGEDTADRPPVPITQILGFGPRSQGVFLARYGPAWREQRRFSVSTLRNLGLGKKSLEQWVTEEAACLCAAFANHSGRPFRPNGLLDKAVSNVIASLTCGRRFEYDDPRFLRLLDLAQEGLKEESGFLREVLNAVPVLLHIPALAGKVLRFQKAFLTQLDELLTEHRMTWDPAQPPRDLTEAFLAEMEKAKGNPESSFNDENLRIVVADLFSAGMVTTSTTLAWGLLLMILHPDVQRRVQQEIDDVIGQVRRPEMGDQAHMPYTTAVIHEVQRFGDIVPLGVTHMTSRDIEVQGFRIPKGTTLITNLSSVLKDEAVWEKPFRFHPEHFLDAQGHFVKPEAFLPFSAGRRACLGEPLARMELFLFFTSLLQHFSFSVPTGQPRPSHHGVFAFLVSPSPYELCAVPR
T6 sequence (Q12809 whole entry): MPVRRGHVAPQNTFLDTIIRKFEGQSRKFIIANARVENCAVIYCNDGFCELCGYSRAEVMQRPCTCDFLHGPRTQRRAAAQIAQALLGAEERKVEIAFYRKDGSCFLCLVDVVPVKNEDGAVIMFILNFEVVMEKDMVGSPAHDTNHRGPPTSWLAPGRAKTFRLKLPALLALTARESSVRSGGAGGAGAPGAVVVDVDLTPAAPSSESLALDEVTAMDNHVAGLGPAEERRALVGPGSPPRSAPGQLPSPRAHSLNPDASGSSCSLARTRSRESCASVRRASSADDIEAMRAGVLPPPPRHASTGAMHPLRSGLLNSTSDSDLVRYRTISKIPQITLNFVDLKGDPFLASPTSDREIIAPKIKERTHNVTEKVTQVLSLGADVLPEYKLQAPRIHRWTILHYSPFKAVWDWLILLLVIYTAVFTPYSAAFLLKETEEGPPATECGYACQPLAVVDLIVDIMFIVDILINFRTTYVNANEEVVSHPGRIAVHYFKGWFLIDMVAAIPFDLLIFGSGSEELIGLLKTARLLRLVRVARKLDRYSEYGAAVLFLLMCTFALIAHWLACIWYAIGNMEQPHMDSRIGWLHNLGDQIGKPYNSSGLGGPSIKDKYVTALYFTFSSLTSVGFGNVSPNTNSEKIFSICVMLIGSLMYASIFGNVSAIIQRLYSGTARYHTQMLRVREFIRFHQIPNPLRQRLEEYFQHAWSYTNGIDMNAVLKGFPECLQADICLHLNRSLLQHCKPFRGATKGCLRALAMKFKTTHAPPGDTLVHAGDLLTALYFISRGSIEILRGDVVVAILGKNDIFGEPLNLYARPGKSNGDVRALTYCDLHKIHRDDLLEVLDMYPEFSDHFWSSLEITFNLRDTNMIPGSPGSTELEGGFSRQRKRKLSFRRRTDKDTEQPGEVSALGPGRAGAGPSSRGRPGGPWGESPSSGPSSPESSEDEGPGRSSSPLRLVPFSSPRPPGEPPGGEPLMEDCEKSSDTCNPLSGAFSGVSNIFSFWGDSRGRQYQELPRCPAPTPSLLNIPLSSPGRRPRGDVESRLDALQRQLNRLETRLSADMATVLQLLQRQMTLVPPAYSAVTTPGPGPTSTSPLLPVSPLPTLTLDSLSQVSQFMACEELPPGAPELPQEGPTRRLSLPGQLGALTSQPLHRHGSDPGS
T3 sequence (P11712 whole entry): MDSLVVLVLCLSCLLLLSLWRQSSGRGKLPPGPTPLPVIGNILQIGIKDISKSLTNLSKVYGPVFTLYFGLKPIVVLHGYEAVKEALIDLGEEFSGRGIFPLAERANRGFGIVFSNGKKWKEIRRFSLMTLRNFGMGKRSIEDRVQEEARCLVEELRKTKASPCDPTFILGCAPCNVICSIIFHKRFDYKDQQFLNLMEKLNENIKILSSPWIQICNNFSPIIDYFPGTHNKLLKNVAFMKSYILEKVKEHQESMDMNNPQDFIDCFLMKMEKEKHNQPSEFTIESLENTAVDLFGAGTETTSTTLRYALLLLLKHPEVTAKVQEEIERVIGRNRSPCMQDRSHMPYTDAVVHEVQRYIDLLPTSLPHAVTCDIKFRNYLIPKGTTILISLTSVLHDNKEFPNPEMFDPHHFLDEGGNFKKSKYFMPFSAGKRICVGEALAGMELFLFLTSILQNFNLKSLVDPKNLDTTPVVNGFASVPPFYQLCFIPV

IC50 ([1]; class symbols) [µM] | IC50 [2] [µM] | IC50 [4] [µM] | IC50 [5, 8] [µM] | half-life at 0.5 uM [6, 10] [min] | half-life at 0.5 uM [6, 11] [min] | half-life at 0.5 uM [6, 12] [min] | SMILES | inhibition at 1 µM [7, 13] [%] | inhibition at 1 µM [7, 14] [%] | inhibition at 1 µM [7, 15] [%] | inhibition at 3 µM [7, 13] [%] | inhibition at 3 µM [7, 14] [%] | inhibition at 3 µM [7, 15] [%] | inhibition at 10 µM [7, 13] [%] | inhibition at 10 µM [7, 14] [%] | inhibition at 10 µM [7, 15] [%] | inhibition at 30 µM [7, 13] [%] | inhibition at 30 µM [7, 14] [%] | inhibition at 30 µM [7, 15] [%] | IC50 [7] [µM] | other results
20 to 50 | 20 to 50 | ≤ 5 | > 50 | ≤ 30 | 10 to 30 | 10 to 30 | Cn1c2c(c(=O)c3ccccc31)CN(Cc1ccccc1)CC2 [Compound I-1, 2-benzyl-5-methyl-1,2,3,4-tetrahydro(5H, 10H)-benzo(b)-1,6-naphthyridin-10-one] | 9.04 | 9.22 | 8.85 | 20.9 | 20.4 | 21.4 | 37.8 | 39.6 | 35.9 | 58.6 | 58.9 | 58.3 | 18.4 | IC50 ([3]; class symbols): > 50 µM; IC50 [5, 9]: > 50 µM
5 to 20 | ≤ 5 | ≤ 5 | ≤ 5 | 10 to 30 | < 10 | < 10 | CN1c2ccccc2C(O)C2CN(Cc3ccccc3)CCC21 (centres unmarked) [Ia-1] | 11.4 | 12.9 | 9.88 | 21.9 | 21.3 | 22.5 | 28.9 | 29.4 | 28.3 | 54.4 | 54.8 | 54.1 | 25.7 | IC50 [5, 9]: 20 to 50 µM
– | 5 to 20 | ≤ 5 | – | ≤ 30 | 10 to 30 | 10 to 30 | O=c1c2c([nH]c3cc(F)c(F)cc13)CCN(Cc1ccccc1)C2 [Ib-22] | 4.5 | 5.62 | 3.37 | 15.3 | 16 | 14.6 | 21.4 | 23.8 | 19 | 30.1 | 34 | 26.2 | 47.3 | IC50 ([1]; numeric bound): > 12.5 µM; IC50 ([3]; numeric bound): > 12.5 µM; IC50 ([5]; CYP3A4^a, numeric bound, read-out: CYP IC50 CYP3A4^a): > 12.5 µM; IC50 ([5]; numeric bound, read-out: CYP IC50 CYP3A4^b): > 12.5 µM
